Test results taken from patent publication US20090069324A1, “CHEMICAL INHIBITORS OF BFL-1 AND RELATED METHODS” (The Burnham Institute, priority 2007, published 2009).
pIC50: −log10 of the molar value. “And” between values parts separate entries of the source, which are not always exact repeats. Equal values may be shown once.

Key:
Bfl-1 [1] = molecular target: T1, Bfl-1 (Homo sapiens, UniProt Q16548); assay: Bfl-1 TR-FRET assay (FITC-Bid, Tb-anti-GST antibody); assay type: binding; conditions: for IC50: single values listed before the Avg, read-out: Bfl-1 TR-FRET IC50 (uM), individual determinations; for Bfl-1 TR-FRET assay, activity in words: Bfl-1/FITC-Bid
T1 construct: lacking their C-terminal transmembrane domains (approximately last 20 amino-acids); made in house; host or cells: XL-1 Blue cells (E. coli), pGEX 4T-1
T1 sequence (Q16548 1-155 limits assumed): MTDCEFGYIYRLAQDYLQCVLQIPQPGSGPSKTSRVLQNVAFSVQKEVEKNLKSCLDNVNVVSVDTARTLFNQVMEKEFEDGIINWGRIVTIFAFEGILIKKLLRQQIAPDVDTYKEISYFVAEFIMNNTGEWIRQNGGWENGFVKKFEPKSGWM
Experimental: TR-FRET assay. For confirmation of FPA results, a TR-FRET assay utilizing terbium- (Tb-) labeled anti-GST antibody (Th-Ab) was developed. […] The reaction mixture was preincubated for 1 h, and TR-fluorescence (TRF) was measured on an M5 plate reader (Molecular Devices) using excitation at 340 nm and emission at […]. The measurements were averaged from 5 readings during 1 ms after an initial delay 0.1 ms. TR-FRET signal was calculated as the ratio of TR-Fluorescence at 520 nm to TR-Fluorescence at […].
For Bfl-1 TR-FRET assays, Bfl-1 protein and FITC-Bid peptide (FITC-Ahx-[…]) (SEQ ID NO: 1) were utilized. Terbium-anti-GST antibody (Tb-anti-GST Ab) was obtained from Invitrogen (San Diego Calif.). The assay buffer contained 25 mM Bis-Tris, pH 7.0, 1 mM TCEP, and 0.005% Tween 20. The Tb-Ab buffer contained 2.5 nM Tb-anti-GST antibody in assay buffer. The Bfl-1/Th-Ab working solution contained 5 nM Bfl-1 in Th-Ab assay buffer. The solution was prepared fresh and kept on ice prior to use. The FITC-Bid working solution contained 5.6 nM FITC-Bid in assay buffer.
For the Bfl-1 TR-FRET dose-response screening protocol, dose-response curves contained 10 concentrations of compounds obtained using 2-fold serial dilution. Compounds were serially diluted in 100% DMSO, and then diluted with water to 10% final DMSO concentration. A 4 μl aliquot of compounds in 10% DMSO was transferred into columns 3-22 of Greiner 384-well white small-volume plates. Columns 1-2 and 23-24 contained 4 μL of 10% DMSO.
Columns 1-2 were reserved for positive controls, and 8 μL of Th-Ab buffer was added using a WellMate bulk dispenser (Matrix). An aliquot of 8 μL of Bfl-1/Th-Ab working solution was added to columns 3-24 of Greiner 384 well white plates using a WellMate bulk dispenser (Matrix). Columns 23-24 represented negative control wells. Plates were incubated for 1 h at 4° C. An 8 μL aliquot of freshly prepared FITC-Bid working solution was added to the whole plate using WellMate bulk dispenser (Matrix). Plates were incubated for 4 h at room temperature protected from direct light. Fluorescence was measured on the M5 plate reader (excitation: 340 nm, emission: 490 and 520 nm, cutoff: 475 and 515 nm, respectively) in Time Resolved (TR) mode with signal integrated for 1 ms after initial delay of 0.1 ms. TR-FRET signal was calculated as the ratio of TR-Fluorescence at 520 nm to TR-Fluorescence at 490 nm. Data analysis was performed using a sigmoidal dose-response equation through non-linear regression.

Bfl-1 [2] = molecular target: T1, Bfl-1; assay: Bfl-1 fluorescence polarization assay (FPA/FP), competition with FITC-Bid BH3 peptide; assay type: binding; conditions: for IC50: single values listed before the Avg, read-out: Bfl-1 FPA IC50 (uM), individual determinations; for Bfl-1 FP assay, activity in words: Bfl-1/FITC-Bid
Experimental: Fluorescence polarization assays (FPA). To determine the binding affinity of anti-apoptotic Bcl-2 polypeptides to FITC-conjugated Bid BH3 peptide, fluorescence polarization assays (FPAs) were performed according to published procedures (Zhai et al., Biochem. J. 376:229-236 (2003)). […] Fluorescence polarization was measured after 10 min using an Analyst™ AD Assay Detection System (LJL Biosystem, Sunnyvale, Calif.) in phosphate-buffered saline (PBS) (pH 7.4). The IC50 determinations were performed using GraphPad Prism software (GraphPad, Inc., San Diego, Calif.).
Competition assays. Using the same procedure outlined above, 100 nM of GST-Bfl-1 protein were incubated with the compounds at 50 μM concentration for 30 min. Then, 5 nM of FITC-Bid BH3 peptide was added. Fluorescence polarization was measured after 10 min. […]

[3] = Tables 7-8, Avg where the cell lists several determinations, read-out: Bfl-1 TR-FRET IC50
[4] = Tables 7-8, Avg where the cell lists several determinations, read-out: Bfl-1 FPA IC50
[5] = Tables 7-8, Avg where the cell lists several determinations
[6] = Tables 3-5, read-out: Bfl-1 TR FRET IC50
[7] = Tables 3-5, read-out: Bfl-1 FP IC50

SMILES | pIC50 (Bfl-1 [1]; [3]) | pIC50 (Bfl-1 [2]; [4]) | pIC50 (Bfl-1 [1]; [6]) | pIC50 (Bfl-1 [2]; [7]) | other results
CC(C)c1nnc(NC(=O)CCS(=O)(=O)c2nc(-c3cccs3)cc(C(F)(F)F)n2)s1 [ASN05990586] | 5.28 | 4.95 |  |  | 
COCC(C)NC(=O)CCS(=O)(=O)c1nc(-c2ccc(OC)cc2)cc(C(F)(F)F)n1 (stereo not drawn) [BAS03664947] | 4.71 | 4.69 |  |  | 
COc1ccc(N2C(=O)C(Cl)=C(Nc3c(C)n(C)n(-c4ccccc4)c3=O)C2=O)cc1 [Compound 3453-0809] | < 4.00 | 4.09 |  |  | 
CCOC(=O)CS(=O)(=O)c1nc(-c2ccccc2)cc(C(F)(F)F)n1 [Compound 7663066] | 5.54 | 5.33 |  |  | IC50 (Bfl-1 [1]; Tables 7-8): 1.18 µM and 4.63 µM; IC50 (Bfl-1 [2]; Tables 7-8): 2.63 µM and 2.4 µM and 5.42 µM and 8.1 µM
CCOC(=O)CCS(=O)(=O)c1nc(-c2ccccc2)cc(C(F)(F)F)n1 [Compound 7914223] | 5.40 | 5.10 |  |  | 
Cc1cc(NC(=O)CCS(=O)(=O)c2nc(-c3ccccc3)cc(C(F)(F)F)n2)no1 [Compound 7979496] | 5.04 | 4.84 |  |  | 
CCOC(=O)CS(=O)(=O)c1nc(-c2ccc(F)cc2)cc(C(F)(F)F)n1 [Compound 7979975] | 5.75 |  |  |  | IC50 (Bfl-1 [1]; Tables 7-8): 1.37 µM and 0.59 µM and 1.5 µM and 2.79 µM and 1.03 µM and 3.41 µM; IC50 (Bfl-1 [2]; Tables 7-8): 1.98 µM and 1.27 µM and 0.695 µM and 1.72 µM and 0.866 µM and 3.33 µM and 4.4 µM and 6.43 µM
COc1ccccc1-c1cc(C(F)(F)F)nc(S(=O)(=O)CCCC(=O)N2CCOCC2)n1 [Compound 7990929] | 4.72 | 4.67 |  |  | 
COc1ccccc1-c1cc(C(F)(F)F)nc(S(=O)(=O)CCCC(=O)NC(C)C)n1 [Compound C071-0355] |  |  |  |  | Bfl-1 TR-FRET IC50 (uM) (Bfl-1 [1]; [5]): nodisplacement; Bfl-1 FPA IC50 (uM) (Bfl-1 [2]; [5]): nodisplacement
COc1ccccc1-c1cc(C(F)(F)F)nc(S(=O)(=O)CCCC(=O)N2CCCCC2C)n1 (stereo not drawn) [Compound C071-0367] | 4.89 | 4.83 |  |  | 
COc1ccccc1-c1cc(C(F)(F)F)nc(S(=O)(=O)CCCC(=O)Nc2cc(C)on2)n1 [Compound C071-0415] |  |  |  |  | Bfl-1 TR-FRET IC50 (uM) (Bfl-1 [1]; [5]): nodisplacement; Bfl-1 FPA IC50 (uM) (Bfl-1 [2]; [5]): nodisplacement
Cc1cc(NC(=O)CCCS(=O)(=O)c2nc(-c3cccs3)cc(C(F)(F)F)n2)no1 [Compound C071-0649] | 4.94 | 4.39 |  |  | 
CS(=O)(=O)c1nc(-c2ccccc2)cc(C(F)(F)F)n1 [Compound C164-0003] |  |  |  |  | Bfl-1 TR-FRET IC50 (uM) (Bfl-1 [1]; [5]): nodisplacement; Bfl-1 FPA IC50 (uM) (Bfl-1 [2]; [5]): nodisplacement
CS(=O)(=O)c1nc(-c2cccs2)cc(C(F)(F)F)n1 [Compound C164-0005] | 4.81 | 5.20 |  |  | 
CS(=O)(=O)c1nc(-c2ccco2)cc(C(F)(F)F)n1 [Compound C164-0006] | 5.22 | 5.14 |  |  | 
COc1ccc(-c2cc(C(F)(F)F)nc(S(C)(=O)=O)n2)c(OC)c1 [Compound C164-0014] | 5.20 | 4.60 |  |  | IC50 (Bfl-1 [1]; Tables 7-8): 5.29 µM and 3.73 µM and 10.1 µM; IC50 (Bfl-1 [2]; Tables 7-8): 40.7 µM and 5.92 µM and 27.2 µM and 28.8 µM and 22.9 µM
CN1CCN(C2=CC(=O)N(c3ccc(Cl)cc3)C2=O)CC1 [MLS-0066987] |  |  |  |  | Bfl-1 TR-FRET assay, activity in words (Bfl-1 [1]): inactive; Bfl-1 FP assay, activity in words (Bfl-1 [2]): inactive
O=C1C(Cl)=C(N2CCCCC2)C(=O)N1c1ccc(Cl)c(Cl)c1 [MLS-0066990] |  |  | 5.89 |  | Bfl-1 FP IC50 (uM) (Bfl-1 [2]; Tables 3-5): no fit

SMILES | pIC50 (Bfl-1 [1]; [3]) | pIC50 (Bfl-1 [2]; [4]) | pIC50 (Bfl-1 [1]; [6]) | pIC50 (Bfl-1 [2]; [7]) | other results
CN1CCN(C2CC(=O)N(c3ccc(Cl)c(Cl)c3)C2=O)CC1 (stereo not drawn) [MLS-0066991] |  |  |  |  | Bfl-1 TR-FRET assay, activity in words (Bfl-1 [1]): inactive; Bfl-1 FP assay, activity in words (Bfl-1 [2]): inactive
O=C1C(Cl)=C(N2CCOCC2)C(=O)N1c1ccc(Cl)c(Cl)c1 [MLS-0067124] |  |  |  | 5.85 | pIC50 (Bfl-1 [1]; text b265, read-out: IC50 in the TR-FRET assay): 5.94; pIC50 (Bfl-1 [2]; text b265, read-out: IC50 in the FP assay): 5.85
O=C1C(Cl)=C(N2CCCC2)C(=O)N1c1ccc(Cl)c(Cl)c1 [MLS-0067126] |  |  |  |  | Bfl-1 TR FRET IC50 (uM) (Bfl-1 [1]; Tables 3-5): no fit; Bfl-1 FP IC50 (uM) (Bfl-1 [2]; Tables 3-5): no fit
COCCNC1=C(Cl)C(=O)N(c2ccc(Cl)c(Cl)c2)C1=O [MLS-0067127] |  |  | 5.30 | 4.90 | 
O=C1C(Cl)=C(Nc2ccccc2)C(=O)N1c1ccc(Cl)c(Cl)c1 [MLS-0067128] |  |  |  |  | Bfl-1 TR FRET IC50 (uM) (Bfl-1 [1]; Tables 3-5): no fit; Bfl-1 FP IC50 (uM) (Bfl-1 [2]; Tables 3-5): no fit
CN1CCN(C2=C(Cl)C(=O)N(c3cc(Cl)cc(Cl)c3)C2=O)CC1 [MLS-0090828] |  |  | 5.78 | 5.61 | 
CN1CCN(C2=C(Cl)C(=O)N(c3ccc(Cl)cc3Cl)C2=O)CC1 [MLS-0090829] |  |  | 5.87 | 5.58 | 
CN1CCN(C2=C(Cl)C(=O)N(c3c(Cl)cccc3Cl)C2=O)CC1 [MLS-0090830] |  |  | 5.43 | 4.86 | 
CN1CCN(C2=C(Cl)C(=O)N(c3cccc(Cl)c3Cl)C2=O)CC1 [MLS-0090831] |  |  | 5.59 | 5.06 | 
Cc1ccc(Cl)c(N2C(=O)C(Cl)=C(N3CCN(C)CC3)C2=O)c1Cl [MLS-0090832] |  |  | 4.95 | 4.62 | 
CN1CCN(C2=C(Cl)C(=O)N(c3ccccc3Cl)C2=O)CC1 [MLS-0090833] |  |  | 5.84 | 5.67 | 
CN1CCN(C2=C(Cl)C(=O)N(c3cccc(Cl)c3)C2=O)CC1 [MLS-0090834] |  |  | 5.93 | 5.67 | 
C[C@@H]1CN(C2=C(Cl)C(=O)N(c3ccc(Cl)c(Cl)c3)C2=O)CCN1 [MLS-0090857] |  |  | 5.99 | 5.94 | 
C[C@H]1CN(C2=C(Cl)C(=O)N(c3ccc(Cl)c(Cl)c3)C2=O)CCN1 [MLS-0090858] |  |  | 5.90 | 5.88 | 
O=C1C(Cl)=C(N2CCN(C/C=C/c3ccccc3)CC2)C(=O)N1c1ccc(Cl)c(Cl)c1 [MLS-0090859] |  |  | 6.14 | 6.23 | 
CCN1CCN(C2=C(Cl)C(=O)N(c3ccc(Cl)c(Cl)c3)C2=O)CC1 [MLS-0090860] |  |  | 6.01 | 5.78 | 
O=C1C(Cl)=C(N2CCN(Cc3ccc4c(c3)OCO4)CC2)C(=O)N1c1ccc(Cl)c(Cl)c1 [MLS-0090865] |  |  | 5.67 | 5.39 | 
O=C1C(Cl)=C(N2CCN(Cc3ccccc3)CC2)C(=O)N1c1ccc(Cl)c(Cl)c1 [MLS-0090866] |  |  | 5.79 | 5.79 | 
